Measured values taken from patent US6599713B1, “Method for quantitating leukocyte count in whole blood sample” (priority 1999, dated 2003).

System: white blood cells contained in the whole blood
Test: Time required for lyzing white blood cells: MPO released from whole blood by surfactant, MPO enzyme immunoassay kit (Example 1)
Assay type: cell-based, human
Details: room temperature; for MPO concentration of whole blood: 100 μl of 11% solution per 1 ml healthy human whole blood, mean ± SD of 3
Method: 10 ml of healthy human whole blood was collected in a test tube containing 10 mg of EDTA-2K (manufactured and sold by Dojin Laboratories, Japan) and the resultant EDTA-containing whole blood sample was stirred well, and then 1 ml of the whole blood sample was taken out from the test tube. To the 1 ml whole blood sample taken out from the test tube was added 100 μl of an aqueous 11% solution of Triton™ X-100 (manufactured and sold under the brand of SIGMA™, U.S.A.), and the resultant mixture was stirred well and then allowed to stand at room temperature for 1 minute to obtain a (whole blood sample/surfactant) mixture containing the lyzed white blood cells. Substantially the same operation as mentioned above was repeated except that the standing time at room temperature was changed to 5 minutes, 30 minutes and 60 minutes to thereby lyze the white blood cells contained in the whole blood.
After the above-mentioned period of time, each of the obtained (whole blood sample/surfactant) mixtures containing the lyzed white blood cells was individually diluted 2,000-fold with a sample diluting buffer (20 mM phosphate buffer (pH 7.4) containing 0.1% bovine serum albumin and 0.2% sodium azide), which buffer is attached to BIOXYTEC™ MPO Enzyme Immunoassay kit (manufactured and sold by OXIS International, Inc., U.S.A.), and the resultant diluted mixture was taken as a sample for the measurement of myeloperoxidase (MPO).
With respect to the above-mentioned sample for the measurement of MPO and a standard MPO solution (which is obtained by dissolving commercially available MPO in the above mentioned buffer), the measurement of the MPO concentration was performed using BIOXYTEC™ MPO Enzyme Immunoassay kit (manufactured and sold by OXIS International, Inc., U.S.A.) in accordance with the instruction manual attached thereto.
Specifically, with respect to the measurement of the MPO concentration of the above-mentioned sample, MPO (manufactured and sold by Elastin Products Co., INC., U.S.A.) was added to the sample so that the final concentration of the added MPO became 5 ng/ml or 10 ng/ml, and the resultant mixture was measured with respect to the MPO concentration. From the obtained value of MPO concentration, a calibration curve for each sample was obtained. The obtained calibration curve was corrected, based on its relationship with a calibration curve obtained with respect to the standard MPO solution, and the corrected calibration curve of each sample was used to determine the MPO concentration of the whole blood. The measurement was conducted 3 times, and a mean value±standard deviation was obtained.

α-[4-(1,1,3,3,-Tetramethylbutyl)phenyl]-ω-hydroxypoly(oxy-1,2-ethanediyl) [Triton ™ X-100]
Time from start of treatment within which MPO is released from the white blood cells to a satisfactory extent (healthy human whole blood): ≤ 60 min | MPO concentration of whole blood (treatment time 1 minute): 9.88 ± 0.50 µg/mL | MPO concentration of whole blood (treatment time 5 minutes): 10.17 ± 0.63 µg/mL | MPO concentration of whole blood (treatment time 30 minutes): 9.94 ± 0.72 µg/mL | MPO concentration of whole blood (treatment time 60 minutes): 10.01 ± 0.22 µg/mL
